Drawing on PubChem BioAssay (NCI), this text covers TGI for ten compounds.

Test systems include TK-10 renal; COLO 205 colon; SK-MEL-28 melanoma; HCT-15 colon; CAKI-1 renal; MOLT-4 leukemia; UACC-257 melanoma; MCF7 breast; SF-295 CNS; SNB-75 CNS; M14 melanoma; NCI-H226 lung; 786-0 renal.
Holding throughout (assay): growth of human tumour cells (NCI), 48 h

SMILES strings stand for the structures.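 In this assay, cells in 96-well plates receive the compound at five concentrations for 48 hours. Endpoints are linearly interpolated between the surrounding concentrations. TGI denotes the concentration required for complete inhibition of growth.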

`O=[N+]([O-])c1c(Br)cc(Br)c2c1Nc1c(ccc(Cl)c1Cl)S2`: the TGI in the assay on TK-10 renal stood at 37.1 µM; with COLO 205 colon, 26.3 µM; with SK-MEL-28 melanoma, 31.4 µM; in the assay with HCT-15 colon it was 39.7 µM; in the assay with CAKI-1 renal, 33.6 µM; in the assay on MOLT-4 leukemia it was 7.6 µM. Further, the TGI is 21.2 µM in the assay with UACC-257 melanoma; 17.9 µM with MCF7 breast; 39.1 µM in the assay with SF-295 CNS; > 72 µM in the assay on SNB-75 CNS; 23.6 µM in the assay with M14 melanoma; 31.6 µM in the assay on NCI-H226 lung. Also, the TGI in the assay on 786-0 renal came out at 22.8 µM.

As to `C[C@@H](O)C(=O)N1[C@@H]2CC3CC[C@]2(CS1(=O)=O)C3(C)C`, the TGI with TK-10 renal, in the assay with COLO 205 colon, in the assay with SK-MEL-28 melanoma, in the assay with HCT-15 colon, in the assay with CAKI-1 renal and in the assay on MOLT-4 leukemia was > 100 µM each time. In addition, the TGI is > 100 µM with UACC-257 melanoma; > 100 µM with MCF7 breast; > 100 µM in the assay on SF-295 CNS; > 100 µM with SNB-75 CNS; > 100 µM with M14 melanoma; 65.3 µM with NCI-H226 lung. In the assay on 786-0 renal, the TGI is > 100 µM.

With `COc1nc2c(c(=O)n1C)N[C@H]1[C@H](OC(C)=O)[C@@H](OC(C)=O)CO[C@H]1N2`, the TGI in the assay on TK-10 renal, in the assay with COLO 205 colon, with SK-MEL-28 melanoma, in the assay with HCT-15 colon, in the assay with CAKI-1 renal and with MOLT-4 leukemia was > 100 µM throughout. Further, the TGI with UACC-257 melanoma, with MCF7 breast, with SF-295 CNS, with SNB-75 CNS, with M14 melanoma and in the assay with NCI-H226 lung was > 100 µM throughout. Besides, the TGI with 786-0 renal was > 100 µM.

Take `COc1cccc(CC(C)NCC(O)c2ccc(O)c(O)c2)c1` (stereo not given): the TGI in the assay with TK-10 renal was > 100 µM; in the assay on COLO 205 colon it was > 100 µM; in the assay on SK-MEL-28 melanoma, > 100 µM; in the assay on HCT-15 colon it was > 100 µM; in the assay with CAKI-1 renal, > 100 µM; with MOLT-4 leukemia, 51.7 µM. Further, the TGI is > 100 µM in the assay with UACC-257 melanoma; > 100 µM with MCF7 breast; > 100 µM in the assay on SF-295 CNS; > 100 µM with SNB-75 CNS; > 100 µM in the assay with M14 melanoma; 90.2 µM in the assay with NCI-H226 lung. For the same compound, the TGI with 786-0 renal was > 100 µM.

For the compound `C(=C\c1cccc(/C=C/c2ccccn2)n1)/c1ccccn1`, the TGI with TK-10 renal, in the assay on COLO 205 colon, in the assay on SK-MEL-28 melanoma, in the assay with HCT-15 colon, in the assay on CAKI-1 renal and with MOLT-4 leukemia was > 100 µM throughout. Moreover, the TGI with UACC-257 melanoma, in the assay on MCF7 breast, in the assay with SF-295 CNS, in the assay with SNB-75 CNS, in the assay on M14 melanoma and in the assay on NCI-H226 lung was > 100 µM in each case. The TGI in the assay on 786-0 renal was > 100 µM.

For `CC[N+]1(C)CCC(O)(/C=C/c2ccc(OC)cc2)C(C(=O)/C=C/c2ccc(OC)cc2)C1` (stereo not given), the TGI in the assay on TK-10 renal is 11.6 µM; in the assay with COLO 205 colon it was 8.08 µM; in the assay with SK-MEL-28 melanoma, 31.7 µM; with HCT-15 colon, > 55.4 µM; in the assay on CAKI-1 renal, 3.93 µM; in the assay on MOLT-4 leukemia it was 4.94 µM. The TGI in the assay with UACC-257 melanoma was 42.4 µM; with MCF7 breast it was > 42.6 µM; in the assay with SF-295 CNS, 39.1 µM; with SNB-75 CNS, 40.6 µM; with M14 melanoma, 30.8 µM; with NCI-H226 lung, > 100 µM. Besides, in the assay on 786-0 renal, the TGI was > 25.8 µM.

For `Cc1nc2c3c(ncn2n1)Oc1c(c(-c2ccccc2)nn1-c1ccccc1)C3c1ccc(Cl)cc1` (stereo not given), the TGI with TK-10 renal, in the assay on COLO 205 colon, in the assay with SK-MEL-28 melanoma, with HCT-15 colon, in the assay on CAKI-1 renal and in the assay on MOLT-4 leukemia was > 100 µM each time. For the same compound, the TGI in the assay with UACC-257 melanoma, with MCF7 breast, with SF-295 CNS, in the assay with SNB-75 CNS, in the assay with M14 melanoma and in the assay with NCI-H226 lung was > 100 µM in each case. Moreover, the TGI with 786-0 renal is > 100 µM.

In the case of `CN(C)/N=C/c1cn(C)c(=O)n(C)c1=O`, the TGI in the assay on TK-10 renal, in the assay with COLO 205 colon, with SK-MEL-28 melanoma, in the assay with HCT-15 colon, in the assay on CAKI-1 renal and in the assay with MOLT-4 leukemia was > 100 µM each time. The TGI in the assay on UACC-257 melanoma, in the assay on MCF7 breast, in the assay on SF-295 CNS, in the assay with SNB-75 CNS, with M14 melanoma and in the assay on NCI-H226 lung was > 100 µM in each case. In addition, the TGI in the assay on 786-0 renal was > 100 µM.

With `CC(C)=CCC[C@@H](C)C1=C(Nc2ccccc2Cl)C(O)=C(C)C(=O)C1=O`, the TGI in the assay with TK-10 renal is > 100 µM; with COLO 205 colon, 9.8 µM; in the assay on SK-MEL-28 melanoma it was 33.5 µM; in the assay with HCT-15 colon it was 36 µM; in the assay on CAKI-1 renal, 16 µM; with MOLT-4 leukemia, 25.1 µM. Also, the TGI in the assay with UACC-257 melanoma is 27.7 µM; with MCF7 breast it was > 100 µM; in the assay with SF-295 CNS, 14 µM; with SNB-75 CNS, 22.3 µM; in the assay on M14 melanoma it was 33.5 µM; in the assay with NCI-H226 lung, 25.3 µM. Moreover, the TGI in the assay on 786-0 renal is > 39.1 µM.

For `CCOP(=O)(OCC)C(Nc1cccc(F)c1)c1ccccc1` (stereo not given), the TGI with TK-10 renal, with COLO 205 colon, in the assay on SK-MEL-28 melanoma, in the assay on HCT-15 colon, in the assay on CAKI-1 renal and in the assay with MOLT-4 leukemia was > 100 µM in each case. The TGI in the assay on UACC-257 melanoma, in the assay with MCF7 breast, with SF-295 CNS, in the assay on SNB-75 CNS, in the assay on M14 melanoma and in the assay on NCI-H226 lung was > 100 µM throughout. The TGI in the assay with 786-0 renal is > 100 µM.
